Data on three compounds can be found in US7060292B2, “Lipid structures and uses thereof” (GESynthesis, Inc., priority 2001, dated 2006).

A short description of series [1]: Movement across bilayer into vesicle interior containing cyclodextrin-esterified DPH (permeability coefficient). It is filed as physicochemical.
Description: Calculation of permeability coefficient (P). The rate constant (kn) for and maximum extent of (Δm) fluorescence change are determined using direct curve fitting procedures (nonlinear regression) assuming that test substance movement is a simple first order process. Deviation from first-order kinetics may be encountered when test compound movement into, out of, or across the membrane is carrier- or channel-mediated or the drug concentration approaches saturation. […] In general an increasing signal takes the form: Et=Eb+En(1−e^−k^n^t)+En+1(1−e^−k^n+1^t)+. . . and a decreasing signal takes the form: Et=Eb+Ene^−k^n^t+En+1e^−k^n+1^t+. . . , where Et is the fluorescence of the system at time t, En is the fluorescence of the system either at time zero (for a decreasing signal) or infinity (for an increasing signal), Eb is the system fluorescence insensitive to addition or removal of test compound, t is time, and kn is the rate constant describing the rate of fluorescence decrease or increase. If more than one first order process is detected, the second or third processes are characterized by En+1, and kn+1 and by En+2 and kn+2, respectively.
The half-life for test compound movement across the bilayer is computed from the rate constant as t1/2=0.693/kn.
The molar flux (v) of a test compound across the membrane is computed as […]
For series [2] the following is noted: Stein 1985; cited from earlier work.
Series [3] in a line: pKa and ionization of test compounds. The format is physicochemical.

Consider `CCO` [ethanol], for which the “rate constant kn for uptake into vesicle interior” value in series [1] (10 μg lipid vesicles in 2 ml buffer, 10 μl ethanol) is reported as 62.9 per second. The “diffusion coefficient Dm” value in series [1] (computed from P and K assuming λ=40×10^−8 cm) is 3.9×10^−7 cm^−2·s^−1. The “diffusion coefficient Dm, reported value” in series [2] was 1.5×10^−7 cm^−2s^−1.
As to `CCCCCC(=O)O` [hexanoic acid], the percentage ionized in series [3] (pH 4.0) was about 13%; in series [3] (pH 7.0), over 99%.
Regarding `CCCCCCO` [hexanol], the ionization result in series [3] (pH 4.0 and pH 7.0) is listed as “not substantially ionized at either pH”.
